Experimental data from PubChem BioAssay (NCI).
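Five concentrations, 48 hours, 96-well plates. Definition used: TGI = concentration required for complete inhibition of growth.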

Experiments:
Experiment in all cases: growth of human tumour cells (NCI), 48 h
EKVX NSCLC = system: EKVX NSCLC
OVCAR-3 ovarian = system: OVCAR-3 ovarian
K-562 leukemia = system: K-562 leukemia
U251 CNS = system: U251 CNS
M14 melanoma = system: M14 melanoma
CCRF-CEM leukemia = system: CCRF-CEM leukemia
ACHN renal = system: ACHN renal
SK-MEL-28 melanoma = system: SK-MEL-28 melanoma
MALME-3M melanoma = system: MALME-3M melanoma
HOP-62 NSCLC = system: HOP-62 NSCLC
KM20L2 colon = system: KM20L2 colon
OVCAR-8 ovarian = system: OVCAR-8 ovarian
OVCAR-5 ovarian = system: OVCAR-5 ovarian
SNB-75 CNS = system: SNB-75 CNS
SF-295 CNS = system: SF-295 CNS
MOLT-4 leukemia = system: MOLT-4 leukemia
SK-MEL-2 melanoma = system: SK-MEL-2 melanoma
RPMI-8226 leukemia = system: RPMI-8226 leukemia
NCI-H460 lung = system: NCI-H460 lung
SW-620 colon = system: SW-620 colon
XF 498 CNS = system: XF 498 CNS
786-0 renal = system: 786-0 renal
A498 renal = system: A498 renal
SNB-19 CNS = system: SNB-19 CNS
SF-268 CNS = system: SF-268 CNS
NCI-H522 lung = system: NCI-H522 lung
LXFL 529 NSCLC = system: LXFL 529 NSCLC
KM12 colon = system: KM12 colon
A549 NSCLC = system: A549 NSCLC
UO-31 renal = system: UO-31 renal
SK-MEL-5 melanoma = system: SK-MEL-5 melanoma
OVCAR-4 ovarian = system: OVCAR-4 ovarian
SN12C renal = system: SN12C renal
DLD-1 colon = system: DLD-1 colon
TK-10 renal = system: TK-10 renal
NCI-H23 lung = system: NCI-H23 lung
UACC-257 melanoma = system: UACC-257 melanoma
CAKI-1 renal = system: CAKI-1 renal
HCC-2998 colon = system: HCC-2998 colon
HT29 colon = system: HT29 colon
HCT-15 colon = system: HCT-15 colon
SNB-78 CNS = system: SNB-78 CNS
IGROV1 ovarian = system: IGROV1 ovarian
LOX IMVI melanoma = system: LOX IMVI melanoma
SK-OV-3 ovarian = system: SK-OV-3 ovarian
NCI-H226 lung = system: NCI-H226 lung
HOP-92 NSCLC = system: HOP-92 NSCLC
M19-MEL melanoma = system: M19-MEL melanoma
COLO 205 colon = system: COLO 205 colon
UACC-62 melanoma = system: UACC-62 melanoma
HCT-116 colon = system: HCT-116 colon
SR leukemia = system: SR leukemia
HL-60(TB) leukemia = system: HL-60(TB) leukemia
DMS 273 small cell lung = system: DMS 273 small cell lung
DMS 114 small cell lung = system: DMS 114 small cell lung
SF-539 CNS = system: SF-539 CNS
RXF 393 renal = system: RXF 393 renal

Measured: TGI

C=CCN1C2Cc3cc(OC)c(OC)cc3C1Cc1cc(OC)c(OC)cc12
> 100 µM: EKVX NSCLC | OVCAR-3 ovarian | K-562 leukemia | U251 CNS | M14 melanoma | CCRF-CEM leukemia | ACHN renal | SK-MEL-28 melanoma | MALME-3M melanoma | HOP-62 NSCLC | KM20L2 colon | OVCAR-8 ovarian | OVCAR-5 ovarian | SNB-75 CNS | SF-295 CNS | MOLT-4 leukemia | SK-MEL-2 melanoma | RPMI-8226 leukemia | NCI-H460 lung | SW-620 colon | XF 498 CNS | 786-0 renal | A498 renal | SNB-19 CNS | SF-268 CNS | NCI-H522 lung | LXFL 529 NSCLC | KM12 colon | A549 NSCLC | UO-31 renal | SK-MEL-5 melanoma | OVCAR-4 ovarian | SN12C renal | DLD-1 colon | TK-10 renal | NCI-H23 lung | UACC-257 melanoma | CAKI-1 renal | HCC-2998 colon | HT29 colon | HCT-15 colon | SNB-78 CNS

O=[N+]([O-])c1nccn1COCCI
> 100 µM: IGROV1 ovarian | EKVX NSCLC | OVCAR-3 ovarian | K-562 leukemia | U251 CNS | M14 melanoma | CCRF-CEM leukemia | ACHN renal | SK-MEL-28 melanoma | MALME-3M melanoma | HOP-62 NSCLC | KM20L2 colon | OVCAR-8 ovarian | OVCAR-5 ovarian | LOX IMVI melanoma | SNB-75 CNS | SF-295 CNS | MOLT-4 leukemia | SK-OV-3 ovarian | SK-MEL-2 melanoma | NCI-H226 lung | HOP-92 NSCLC | RPMI-8226 leukemia | NCI-H460 lung | SW-620 colon | XF 498 CNS | M19-MEL melanoma | 786-0 renal | COLO 205 colon | SNB-19 CNS | SF-268 CNS | NCI-H522 lung | LXFL 529 NSCLC | KM12 colon | A549 NSCLC | UACC-62 melanoma | UO-31 renal | SK-MEL-5 melanoma | HCT-116 colon | SR leukemia | OVCAR-4 ovarian | HL-60(TB) leukemia | SN12C renal | DMS 273 small cell lung | DLD-1 colon | TK-10 renal | DMS 114 small cell lung | SF-539 CNS | NCI-H23 lung | UACC-257 melanoma | CAKI-1 renal | HT29 colon | HCT-15 colon | SNB-78 CNS

CC1=C(O)C(=O)C2C(=O)C1C(C)C2c1ccc(C)cc1 (stereo not drawn)
> 100 µM: IGROV1 ovarian | EKVX NSCLC | OVCAR-3 ovarian | K-562 leukemia | U251 CNS | M14 melanoma | CCRF-CEM leukemia | ACHN renal | SK-MEL-28 melanoma | MALME-3M melanoma | HOP-62 NSCLC | KM20L2 colon | OVCAR-8 ovarian | OVCAR-5 ovarian | LOX IMVI melanoma | SNB-75 CNS | SF-295 CNS | MOLT-4 leukemia | SK-OV-3 ovarian | SK-MEL-2 melanoma | RXF 393 renal | HOP-92 NSCLC | RPMI-8226 leukemia | NCI-H460 lung | SW-620 colon | XF 498 CNS | M19-MEL melanoma | 786-0 renal | COLO 205 colon | A498 renal | SNB-19 CNS | SF-268 CNS | NCI-H522 lung | LXFL 529 NSCLC | KM12 colon | A549 NSCLC | UACC-62 melanoma | UO-31 renal | SK-MEL-5 melanoma | SR leukemia | OVCAR-4 ovarian | DMS 273 small cell lung | DLD-1 colon | TK-10 renal | SF-539 CNS | NCI-H23 lung | UACC-257 melanoma | CAKI-1 renal | HCC-2998 colon | HT29 colon | HCT-15 colon | SNB-78 CNS
